Assay results from paper PMC2365101, “Anti-Inflammatory Activity of (Polyphenolic)-Sulfonates and Their Sodium Salts in Rodents” (Metal-Based Drugs, 1998).

Target: T1, TNFα high affinity receptors on L929 fibroblasts (Mus musculus, UniProt P25118)
T1 construct: host or cells: L929 mouse fibroblasts
T1 sequence (P25118 30-454): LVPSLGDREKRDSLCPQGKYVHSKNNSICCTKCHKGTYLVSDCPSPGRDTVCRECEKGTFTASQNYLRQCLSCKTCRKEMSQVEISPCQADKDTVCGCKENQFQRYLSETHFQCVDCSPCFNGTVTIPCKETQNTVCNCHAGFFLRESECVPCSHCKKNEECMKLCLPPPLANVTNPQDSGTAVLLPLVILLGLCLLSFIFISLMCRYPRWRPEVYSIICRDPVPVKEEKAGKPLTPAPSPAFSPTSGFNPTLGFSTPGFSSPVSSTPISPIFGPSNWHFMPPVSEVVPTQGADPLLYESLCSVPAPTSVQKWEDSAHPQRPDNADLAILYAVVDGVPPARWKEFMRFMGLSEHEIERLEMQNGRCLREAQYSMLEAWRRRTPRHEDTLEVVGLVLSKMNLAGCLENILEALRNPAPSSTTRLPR
Assay: 125I-TNFα binding to high affinity receptors on L929 fibroblasts
Details: 90 min, N=6
From the text: Few reports in the literature indicate interaction at these receptor sites other than by peptides or antibodies. […] Blocking these receptors is desirable because the entire inflammation cascade of events is triggered by the early release of TNFa and IL-1. […] Radioisotopes were obtained from New England Nuclear [Dupont, Boston, MA] and substrates and co- factors were obtained from Sigma Chemical Co. [St. Louis, MO]. […] Cell lines were obtained from American Type Culture Collection [Rockville, MD]. In Vivo Tests Anti-inflammatory screen in mice: Male CF male mice weighing 28-32g obtained from Jackson Lab. [Bar Harbor, […]] were used to screen agents at 8 or 16 mg/kg intraperitoneal [I.P.] x 2 administered 3 hr and 30 min prior to administering the irritant, according to Winter's protocol. Evaluation of the induced edema was made by injecting 2% carrageenan in 0.9% saline into the plantar region of the foot. The opposite foot injected with 0.9% isotonic saline was used as a base line. […] Salmonella abortus equi [Lot # 69F4003] […] Drugs from 2 to 16 mg/kg, I.P. were administered 2 hr prior and 2 hr post-injection of the LPS and then subsequently for every 24 hr for the length ofthe animals' lives. Deaths were recorded every 12 hr and continued for 96 hr. […] In vitro TNFa andIL-1 Measurements and Cellular Regulation IC-21 mouse macrophages were maintained in RPMI-1640 + 10% FCS + P/S. After the cells had grown to confluency, E. coli LPS at 10 Ixg/ml was added to the medium. Agents were incubated at 12.5 to 100 µM final concentration for 18 hr. The medium (100 btl) was collected for TNFCt determinations. Interleukin-1 [IL-1] release was determined using P388D1 cells which were maintained in RPMI-1640 + 10% FCS + P/S. The L929 bioassay was used to quantitate the TNF and the IL-1 levels. The L929 mouse fibroblasts were grown in DMEM + 10% FCS + P/S to confluency in 96 well plates and incubated with 100 tl ofmedium from […] or P388D cells after 18 hr. The cells were stained with 0.2% crystal violet in 20% MeOH and read at 580 nm using a Molecular Devices scanner (SOFT-max program). High Affinity Binding to Receptors on L929-106 Cells Two laCi of 125I-TNFct (human recombinant, 30 mCi/tg New England Nuclear) or 125I-IL-1 (70-120[.t Ci/lxg,New England Nuclear) was added to confluency L929 cells for 90 min or 5 hr, […] The cells were washed repeatedly with isotonic saline, pH.7.2 and aliquots counted. Prostaglandin cylcooxygenase activity Mouse J774AI macrophages maintained in Dulbecco's modified Eagle's medium + 15% FCS + P/S. Cells (5 x 106) were incubated with agents (5 to 100 ].tM final concentration) and 3H-arachidonic acid (100 Ci/mol) for 60 min at 37C in a CO2 incubator. The reaction was terminated with 2N HCI, the mixture extracted 2 X with ether, and the organic layer evaporated.

Compound	TNFα binding, Percent of Control (5 μM)	TNFα binding, Percent of Control (25 μM)	TNFα binding, Percent of Control (50 μM)	TNFα binding, Percent of Control (12.5 μM)
CC(=O)Oc1c2cc(S(=O)(=O)[O-])cc1Cc1cc(S(=O)(=O)[O-])cc(c1OC(C)=O)Cc1cc(S(=O)(=O)[O-])cc(c1OC(C)=O)Cc1cc(S(=O)(=O)[O-])cc(c1OC(C)=O)Cc1cc(S(=O)(=O)[O-])cc(c1OC(C)=O)Cc1cc(S(=O)(=O)[O-])cc(c1OC(C)=O)Cc1cc(S(=O)(=O)[O-])cc(c1OC(C)=O)Cc1cc(S(=O)(=O)[O-])cc(c1OC(C)=O)C2.[Na+].[Na+].[Na+].[Na+].[Na+].[Na+].[Na+].[Na+] [Compound 8]	59 + 6% of Control	23 + 4% of Control	37 + 4% of Control	–
COc1c2cc(S(=O)(=O)[O-])cc1Cc1cc(S(=O)(=O)[O-])cc(c1OC)Cc1cc(S(=O)(=O)[O-])cc(c1OC)Cc1cc(S(=O)(=O)[O-])cc(c1OC)Cc1cc(S(=O)(=O)[O-])cc(c1OC)Cc1cc(S(=O)(=O)[O-])cc(c1OC)C2.[Na+].[Na+].[Na+].[Na+].[Na+].[Na+] [Compound 6]	61 + 5% of Control	24 + 3% of Control	36 + 5% of Control	39 + 4% of Control
